This assay concerns the target T1, human NOX4 (Homo sapiens, UniProt Q9NPH5).
T1 construct: expressed in transfected cells; membrane fraction used
T1 sequence (Q9NPH5 1-578): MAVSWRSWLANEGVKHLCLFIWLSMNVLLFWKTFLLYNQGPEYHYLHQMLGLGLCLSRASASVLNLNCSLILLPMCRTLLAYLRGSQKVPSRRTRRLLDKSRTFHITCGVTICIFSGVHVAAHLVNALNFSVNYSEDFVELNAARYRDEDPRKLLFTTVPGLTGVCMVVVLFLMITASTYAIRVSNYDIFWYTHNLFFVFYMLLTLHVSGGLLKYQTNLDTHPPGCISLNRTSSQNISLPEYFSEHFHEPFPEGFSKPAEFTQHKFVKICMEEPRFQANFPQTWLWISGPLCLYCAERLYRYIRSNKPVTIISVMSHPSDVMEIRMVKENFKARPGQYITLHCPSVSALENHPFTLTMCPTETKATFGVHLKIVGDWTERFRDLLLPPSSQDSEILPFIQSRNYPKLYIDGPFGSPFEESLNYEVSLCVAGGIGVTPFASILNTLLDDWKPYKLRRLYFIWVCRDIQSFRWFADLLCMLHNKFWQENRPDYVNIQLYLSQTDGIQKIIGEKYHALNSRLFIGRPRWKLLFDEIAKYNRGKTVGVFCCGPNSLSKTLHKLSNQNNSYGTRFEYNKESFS
T1 sequence (P13498 1-195 partner): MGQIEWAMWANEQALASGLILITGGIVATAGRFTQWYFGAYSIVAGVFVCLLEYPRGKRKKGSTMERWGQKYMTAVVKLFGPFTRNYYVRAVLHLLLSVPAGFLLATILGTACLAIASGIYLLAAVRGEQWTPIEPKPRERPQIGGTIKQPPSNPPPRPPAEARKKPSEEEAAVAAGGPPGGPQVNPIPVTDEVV
As to the kind of experiment: Cell free membrane based in vitro NOX4 assay: H2O2 production by membranes expressing human NOX4, measured with Amplex Red. The following applies: for inhibition at 1 µM: 1.0 μM compound, read-out: Percentage inhibition at 1.0 μM; for inhibition at 10 µM: 10.0 μM compound, read-out: Percentage inhibition at 10.0 μM; for IC50: class symbols. It is filed as biochemical. In outline:
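IC50 came from concentration-response curves fitted as % of the inhibitor-free maximum. H2O2 formation was monitored for 10 min via Amplex Red/HRP fluorescence (544/590 nm) after NADPH start. Membranes from a stable hNOX4/HEK line had 20 min exposure to inhibitor beforehand at pH 7.4.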

The structures appear in SMILES notation.

As for `CCc1nn(CCN2CCOCC2)c2[nH]c(-c3ccccc3Cl)c(O)c(=O)c12` [Example 146, 6-(2-Chlorophenyl)-3-ethyl-5-hydroxy-1-(2-morpholinoethyl)-1H-pyrazolo[3,4-b]pyridin-4(7H)-one], the inhibition at 1 µM came to 94%, the inhibition at 10 µM was 81.8% and the half-maximal inhibitory concentration (IC50) was in the range of 100 to 150 nM.

Turning to `Cc1nn(CCCN2CCOCC2)c2[nH]c(-c3ccccc3Cl)c(O)c(=O)c12` [Example 147, 6-(2-Chlorophenyl)-5-hydroxy-3-methyl-1-(3-morpholinopropyl)-1H-pyrazolo[3,4-b]pyridin-4(7H)-one], the inhibition at 1 µM stood at 94.3%, the inhibition at 10 µM came out at 64.9% and the IC50 lay within 100 to 150 nM.

As for `Cc1nn(CCN2C[C@@H](C)O[C@@H](C)C2)c2[nH]c(-c3ccccc3Cl)c(O)c(=O)c12` [Example 148, 6-(2-Chlorophenyl)-1-(2-((2S,6R)-2,6-dimethylmorpholino)ethyl)-5-hydroxy-3-methyl-1H-pyrazolo[3,4-b]pyridin-4(7H)-one], the inhibition at 1 µM came to 94.3%, the inhibition at 10 µM stood at 85.3% and the IC50 is over 150 nM.

Consider `Cc1nn(CCN2CCCCC2)c2[nH]c(-c3ccccc3Cl)c(O)c(=O)c12` [Example 149, 6-(2-Chlorophenyl)-5-hydroxy-3-methyl-1-(2-(piperidin-1-yl)ethyl)-1H-pyrazolo[3,4-b]pyridin-4(7H)-one], for which the inhibition at 1 µM amounted to 79.1%, the inhibition at 10 µM came to 74.7% and the IC50 was over 150 nM.

Regarding `O=c1c(O)c(-c2ccccc2Cl)[nH]c2c1c(C(F)(F)F)nn2CCN1CCOCC1` [Example 150, 6-(2-Chlorophenyl)-5-hydroxy-1-(2-morpholinoethyl)-3-(trifluoromethyl)-1H-pyrazolo[3,4-b]pyridin-4(7H)-one], the inhibition at 1 µM was 67.1%, the inhibition at 10 µM stood at 84.4% and the IC50 was over 150 nM.

Consider `Cc1nn(CCN2CCCC2)c2[nH]c(-c3ccccc3Cl)c(O)c(=O)c12` [Example 151, 6-(2-Chlorophenyl)-5-hydroxy-3-methyl-1-(2-(pyrrolidin-1-yl)ethyl)-1H-pyrazolo[3,4-b]pyridin-4(7H)-one], for which the inhibition at 1 µM turned out to be 81.1%, the inhibition at 10 µM was 76.2% and the IC50 was over 150 nM.

Regarding `Cc1nn(CCN2CCOCC2)c2[nH]c(-c3ccccc3C(F)(F)F)c(O)c(=O)c12` [Example 152, 5-Hydroxy-3-methyl-1-(2-morpholinoethyl)-6-(2-(trifluoromethyl)phenyl)-1H-pyrazolo[3,4-b]pyridin-4(7H)-one], the inhibition at 1 µM came to 93.5%, the inhibition at 10 µM is 89.9% and the IC50 fell in the range of 100 to 150 nM.

Take `Cc1nn(CCN2CCOCC2)c2[nH]c(-c3cccc(C(F)(F)F)c3F)c(O)c(=O)c12` [Example 153, 6-(2-fluoro-3-(trifluoromethyl)phenyl)-5-hydroxy-3-methyl-1-(2-morpholinoethyl)-1H-pyrazolo[3,4-b]pyridin-4(7H)-one]: the inhibition at 1 µM was 100%, the inhibition at 10 µM is 93% and the 50% inhibitory concentration (IC50) is over 150 nM.

Regarding `CN(C)CCn1nc(C(F)(F)F)c2c(=O)c(O)c(-c3ccccc3Cl)[nH]c21` [Example 154, 6-(2-chlorophenyl)-1-(2-(dimethylamino)ethyl)-5-hydroxy-3-(trifluoromethyl)-1H-pyrazolo[3,4-b]pyridin-4(7H)-one], the inhibition at 1 µM is 99.6%, the inhibition at 10 µM worked out at 100% and the IC50 was over 150 nM.

Consider `Cc1nn(CCN2CCN(C)CC2)c2[nH]c(-c3ccccc3Cl)c(O)c(=O)c12` [Example 155, 6-(2-chlorophenyl)-5-hydroxy-3-methyl-1-(2-(4-methylpiperazin-1-yl)ethyl)-1H-pyrazolo[3,4-b]pyridin-4(7H)-one], for which the inhibition at 1 µM was determined as 100%, the inhibition at 10 µM stood at 93.3% and the IC50 is under 50 nM.

One may read the inhibition as the relative decrease from the control value, in per cent. What is called IC50 is the midpoint of a concentration-inhibition curve.

Values taken from patent publication US20200247800A1, “SUBSTITUTED BICYCLIC HETEROCYCLIC COMPOUNDS AS NADPH OXIDASE INHIBITORS” (Glenmark Pharmaceuticals S.A., priority 2017, published 2020).
